The conditions of test [1]: carvedilol cohort versus non-carvedilol cohort; cited from earlier work.
The test system of test [2] is β2-AR. Also on record: method as in as printed in each cell (43-46, 48-54, 56-58). Conditions: as described in the references; ref (43-46, 48-54, 56-58); cited from earlier work.
Test [3] deals with JB6 P+ cells. Put plainly: Modified seven-day soft agar assay in shRNA lentivirus infected JB6 P+ cells. It counts as cell-based, mouse. Conditions: for IC50: Mus musculus. The method, then:
Knockdown of the β2-AR via the Adrb2 shRNA lentivirus was examined via seeding 1x10^4 JB6 P+ cells/well of a 6-well plate in standard growth media (see above). 24 hr after seeding, the growth media was removed from attached cells and replaced with 2 ml EMEM containing 4% heat-inactivated FBS without antibiotics and […] polybrene. 1.5 ml lentiviral shRNA stocks of either Adrb2 or scrambled control were added to appropriate wells and plates were centrifuged at 1,000 g at room temperature for 1 hr. Following centrifugation, media was replaced with 3 ml EMEM lacking antibiotics and grown at 37°C. After 2, 3, 7, and 10 days of growth, cells were trypsinized, collected and centrifuged at 300g for 5 min. Cells were washed with 1 ml PBS, and RNA was extracted using Qiagen’s RNeasy Mini kit. RNA was reverse transcribed into cDNA using Applied Biosystems cDNA reverse transcription kit (Invitrogen) and stored at -20°C for future use.
β2-AR shRNA lentivirus infected JB6 P+ cells were utilized in modified anchorage-independent growth assays in soft agar. The procedure was shortened to seven days because the shRNA-mediated β2-AR knockdown persisted up to ten days. Infection of the cells occurred as described in the verification of effective shRNA-mediated β2-AR knockdown, and the cells were grown for three days, then they were added to the agar as described in the anchorage-independent growth assays in soft agar section. The colonies were counted after seven days in culture; thus, matching the ten days of β2-AR knockdown.

Test [4] deals with JB6 P+ cells. As to the kind of experiment: Soft agar assay with competitive adrenergic receptor antagonists. The format is cell-based. To be noted: Mus musculus, alone. The procedure: Ten ng/mL EGF was used to promote the anchorage-independent growth of JB6 cells. […] Plates were incubated at 37°C, 5% CO2 for 14 days. Colonies with greater than ten cells were counted manually under a microscope. Antagonists identified in our assays as ineffective at blocking EGF-mediated transformation of JB6 P+ cells yet displaying no or little toxicity were used as competitive antagonists towards carvedilol-mediated prevention of EGF-induced transformation of JB6 P+ cells.

Test [5] deals with JB6 P+ cells. Put plainly: Anchorage-independent growth assay in soft agar (EGF-induced JB6 P+ colony formation). It counts as cell-based, mouse. The procedure:
Ten ng/mL EGF was used to promote the anchorage-independent growth of JB6 cells. […] Plates were incubated at 37°C, 5% CO2 for 14 days. Colonies with greater than ten cells were counted manually under a microscope. […] Normalization allowed for comparison of data over a range of JB6 P+ cell cultures, passages, and experimental time for the shRNA studies, as well as control for variation in the EGF response, and importantly allowed for a direct comparison to all concentration-response experiments including the toxicity assays. […] All group sizes were determined via previous studies to provide statistically meaningful data. In the soft agar assays, key results were repeated with different JB6 P+ cells to confirm the results. Similarly, the shRNA studies were conducted with three independent concentration-response curves with different JB6 P+ cell stocks. […] For two sample comparisons a t-test was utilized, and when comparing multiple samples a One-, Two-, or Three-Factor ANOVA followed by Tukey-Kramer post hoc test was utilized depending on the data. For all tests, statistical difference was donated when p < 0.05. […] The I[…]*PSD is expressed in x-axis units (log [M]) as is an IC50 and it represents the first concentration where it is expected to observe a statistical decrease in the measured signal. […] Using the formula provided by GraphPad Prism or a straight line for the point-to-point graphs, the X-axis value for point Y was determined. The error is ascribed to this measurement via adding and subtracting the pooled standard deviation (PSD) to/from point Y generating point Y ± PSD. The two new points were then transformed to the X-axis units as was done for point Y creating an asymmetric error in sigmoidal plots. When the error was asymmetric, the larger error value was chosen to err on the conservative side. See S1 Fig for a pictoral explination of the method. The data is presented as I[…]*PSD ± error.

The structures appear in SMILES notation. Values joined by “and” are separate entries in the source; they are usually repeats but may differ in a detail not shown here. Identical values can stand only once.

Results on one molecule are retold here after article PMC6527222 (PLoS ONE, 2019).

`COc1ccccc1OCCNCC(O)COc1cccc2[nH]c3ccccc3c12` (centres unmarked) [Carvedilol]: the “reduction in the incidence of all types of cancer” value in test [1] is recorded as 26%. The “Pharmacological property at β2-AR” value in test [2] was “Biased agonist/ partial ERK agonist [43, 44]”. In addition, the IC50 in test [3] (168 h, independent experiments 1-3, seven days, read-out: ardb2 shRNA Mean logIC50 (converted)) was 718 nM; in test [3] (168 h, scrambled control shRNA, three experiments combined (Fig 6B), seven days, read-out: LogIC50 (converted)), 813 nM; in test [3] (168 h, β2-AR-targeted shRNA, three experiments combined (Fig 6B), seven days, read-out: LogIC50 (converted)), 1000 nM; in test [3] (line Mean, read-out: Scrambled shRNA Mean logIC50, mean of three experiments (converted)), 714 nM; in test [3] (line Mean, read-out: ardb2 shRNA Mean logIC50, mean of three experiments (converted)), 979 nM; in test [4] (CGP 12177 experiment (Fig 5B)) it was 331 nM. Moreover, the IC50 is 275 nM in test [4] (HEAT HCl experiment (Fig 5C)); 282 nM in test [4] (nadolol experiment (Fig 5A)); 251 nM in test [5] (Mus musculus, 336 h, 10 ng/mL EGF, 14 days, negative log value, read-out: Soft Agar Assay Log IC50 (converted)). Also, the “ardb2 shRNA Mean logIC50” value in test [3] (independent experiments 1-3, seven days) was -5.965 log [M] and -5.917 log [M]. Also, the “Soft Agar Assay Log IC50” value in test [5] (10 ng/mL EGF, 14 days, negative log value) was -6.61 ± 0.06 log [M]. Also, the Emax in test [5] (Mus musculus, efficacy of inhibition of colony formation, reported if non-toxic) was found to be 94.7 ± 4.31%.
